Test results from patent US20160242416A1, “FUNGICIDAL ISOXAZOLINE CARBINOLS” (E I DU PONT DE NEMOURS AND COMPANY, priority 2015, published 2016).

Key:
Botrytis cinerea = experiment: Test B: gray mold, preventive spray on tomato seedlings; settings: gray mold on tomato, 100 = 100% disease control, 0 = no control
Text: (§1) General protocol for preparing test solutions for Tests A-G: the test compounds were first dissolved in acetone in an amount equal to 3% of the final volume and then suspended at the desired concentration (in ppm) in acetone and purified water (50/50 mix by volume) containing 250 ppm of the surfactant PEG400 (polyhydric alcohol esters). The resulting test suspensions were then used in Tests A-G. Compounds were sprayed at a concentration of 50 ppm (*) or 10 ppm to the point of run-off on the test plants, the equivalent of a rate of 200 g/ha or 40 g/ha, respectively.
The test solution was sprayed to the point of run-off on tomato seedlings. The following day the seedlings were inoculated with a spore suspension of Botrytis cinerea (the causal agent of gray mold on many crops) and incubated in a saturated atmosphere at 20° C. for 48 h, and moved to a growth chamber at 27° C. for 2 days, after which time visual disease ratings were made.
(§2) Compounds with an asterisks (*) were applied at a concentration of 50 ppm, otherwise test solutions were applied at 10 ppm.

[1] = tested on: Puccinia recondita f sp. tritici; experiment: Test F: wheat leaf rust, preventive spray on wheat seedlings; settings: wheat leaf rust, 100 = 100% disease control, 0 = no control
Zymoseptoria tritici = experiment: Test E: wheat leaf blotch, preventive spray on wheat seedlings; settings: wheat leaf blotch, 100 = 100% disease control, 0 = no control
Stagonospora nodorum = experiment: Test D: wheat glume blotch, preventive spray on wheat seedlings; settings: wheat glume blotch, 100 = 100% disease control, 0 = no control
[2] = tested on: Erysiphe graminis f sp. tritici; experiment: Test G: wheat powdery mildew, preventive spray on wheat seedlings; settings: wheat powdery mildew, 100 = 100% disease control, 0 = no control
Text: as §1
The test solution was sprayed to the point of run-off on wheat seedlings. The following day the seedlings were inoculated with a spore dust of Erysiphe graminis f sp. tritici, (the causal agent of wheat powdery mildew) and incubated in a growth chamber at 20° C. for 8 days, after which time visual disease ratings were made.
as §2

SMILES | Test B rating (% disease control) (Botrytis cinerea; 10 ppm) | Test F rating (% disease control) ([1]; 10 ppm) | Test E rating (% disease control) (Zymoseptoria tritici; 10 ppm) | Test D rating (% disease control) (Stagonospora nodorum; 10 ppm) | Test G rating (% disease control) ([2]; 10 ppm) | Test B rating (% disease control) (Botrytis cinerea; 50 ppm (asterisk)) | Test F rating (% disease control) ([1]; 50 ppm (asterisk)) | Test E rating (% disease control) (Zymoseptoria tritici; 50 ppm (asterisk)) | Test D rating (% disease control) (Stagonospora nodorum; 50 ppm (asterisk)) | Test G rating (% disease control) ([2]; 50 ppm (asterisk))
OC(Cn1cncn1)(C1=NOC(c2ccc(C(F)(F)F)cc2)C1)c1ccc(C(F)(F)F)cc1 (single isomer, unassigned) [Compound 154] | 0% | 52% | 1% | 0% | 83% | – | – | – | – | –
CC(C)(C)C(O)(Cn1cncn1)C1=NOC(c2ccc(-n3cc(Br)cn3)cc2)C1 (single isomer, unassigned) [Compound 7] | 99% | 100% | 14% | 0% | 100% | – | – | – | – | –
OC(Cn1cncn1)(C1=NOC(c2cnccn2)C1)c1ccc(Cl)cc1 (single isomer, unassigned) [Compound 157] | 0% | 0% | 0% | 0% | 26% | – | – | – | – | –
CC(C)(C)C(O)(Cn1cncn1)C1=NOC(Cn2cc(Br)cn2)C1 (single isomer, unassigned) [Compound 41] | 0% | 41% | 0% | 0% | 90% | – | – | – | – | –
OC(Cn1cncn1)(C1=NOC(Cc2ccc(C(F)(F)F)cc2)C1)c1ccc(Cl)cc1 (single isomer, unassigned) [Compound 202] | 0% | 100% | 21% | 59% | 99% | – | – | – | – | –
OC(Cn1cncn1)(C1=NOC(c2ccc(Oc3ccccc3)cc2)C1)c1ccc(Cl)cc1 (single isomer, unassigned) [Compound 142] | 0% | 100% | 91% | 86% | 99% | – | – | – | – | –
OC(Cn1cncn1)(C1=NOC(c2ccc(Cl)cc2)C1)c1ccc(Oc2ccccc2)cc1 (single isomer, unassigned) [Compound 128] | – | – | – | – | – | 0% | 100% | 95% | 100% | 99%
CC(C)(C)CC(O)(Cn1cncn1)C1=NOC(c2ccc(Cl)cc2)C1 (single isomer, unassigned) [Compound 139] | 0% | 100% | 6% | 99% | 99% | – | – | – | – | –
CC(C)(C)C(O)(Cn1cncn1)C1=NOC(COCc2ccccc2)C1 (single isomer, unassigned) [Compound 60] | 0% | 28% | 3% | 73% | 90% | – | – | – | – | –
CC(C)(C)C(O)(Cn1cncn1)C1=NOC(COCc2ccccc2)C1 (single isomer, unassigned) [Compound 59] | 0% | 80% | 2% | 92% | 89% | – | – | – | – | –
CC(C)(C)C(O)(Cn1cncn1)C1=NOC(CSc2ccccc2)C1 (single isomer, unassigned) [Compound 74] | 44% | 0% | 13% | 0% | 56% | – | – | – | – | –
OC(Cn1cncn1)(C1=NOC(COc2ccc3c(c2)OCO3)C1)c1ccc(Cl)cc1 (single isomer, unassigned) [Compound 43] | 31% | 100% | 0% | 38% | 98% | – | – | – | – | –
CC(C)(C)C(O)(Cn1cncn1)C1=NOC(Cn2ccc(C(F)(F)F)n2)C1 (single isomer, unassigned) [Compound 49] | 11% | 99% | 0% | 82% | 99% | – | – | – | – | –
OC(Cn1cncn1)(C1=NOC(c2ccc(Cl)cc2)C1)c1cccc(Oc2ccccc2)c1 (single isomer, unassigned) [Compound 109] | 0% | 100% | 66% | 59% | 93% | – | – | – | – | –
OC(Cn1cncn1)(C1=NOC(c2ccc(Cl)cc2)C1)c1ccc(Br)cc1 (single isomer, unassigned) [Compound 180] | 0% | 100% | 1% | 99% | 100% | – | – | – | – | –
CC(C)(C)C(O)(Cn1cncn1)C1=NOC(COC2CCCCC2)C1 (single isomer, unassigned) [Compound 92] | 0% | 0% | 3% | 10% | 13% | – | – | – | – | –
OC(Cn1cncn1)(C1=NOC(COCc2ccccc2)C1)c1ccc(Cl)cc1 (single isomer, unassigned) [Compound 57] | 0% | 97% | 0% | 0% | 97% | – | – | – | – | –
CSc1ccc(C2CC(C(O)(Cn3cncn3)c3ccc(Cl)cc3)=NO2)cc1 (single isomer, unassigned) [Compound 107] | 0% | 100% | 58% | 32% | 99% | – | – | – | – | –
OC(Cn1cncn1)(C1=NOC(COc2ccc(OCc3ccccc3)cc2)C1)c1ccc(Cl)cc1 (single isomer, unassigned) [Compound 70] | 28% | 9% | 0% | 47% | 76% | – | – | – | – | –
CC(C)(C)C(O)(Cn1cncn1)C1=NOC(COc2ccc(C(F)(F)F)cc2)C1 (single isomer, unassigned) [Compound 81] | 57% | 100% | 95% | 100% | 100% | – | – | – | – | –
CCC(C)(C)C(O)(Cn1cncn1)C1=NOC(COc2ccc(Cl)cc2)C1 (single isomer, unassigned) [Compound 186] | 99% | 100% | 66% | 100% | 100% | – | – | – | – | –
CCC(C)(C)C(O)(Cn1cncn1)C1=NOC(Cc2ccc(Cl)cc2)C1 (single isomer, unassigned) [Compound 17] | 51% | 100% | 7% | 98% | 100% | – | – | – | – | –
